Data from patent publication US20050203168A1, “Angiotensin converting enzyme inhibitor use for treatment and prevention of gastrointestinal disorders” (The Regents of the University of Michigan, priority 2004, published 2005).
Several values for one entry are separate records, joined by “and”; a condition that tells them apart may be missing. Equal values may be shown once.

Columns and labels:
[1] = test system: epithelial cell (EC) apoptosis; test: Epithelial cell apoptosis/necrosis by Annexin V / propidium iodide flow cytometry in SBS and Sham mice given ACE-I; format: in vivo, mouse; settings: 0.6 mg/kg/day i.p., 1 week
Method: (§1) Animals: Male, 2 month old, C57BL/6J mice (Jackson Laboratories, Bar Harbor, Me.) were maintained in a 12-hour day-night rhythm at 23° C. and a relative humidity of 40%-60%. 24 hours before surgery chow was exchanged to micro-stabilized rodent liquid diet (TestDiet, Richmond, Ind.). Anesthesia was achieved using sodium pentobarbital (50 mg/kg body weight, intraperitoneally, i.p.). For some experiments B6.129P2-Ace^tm2Unc (ACE^−/−; lacking somatic ACE, generous gift from the Dr. O. Smithies, Duke University), or B6;129S6-Tnf^tm1Gkl (TNF-α-knockout mice, Jackson Labs) were used. Studies conformed, and were approved by the University Committee on Use and Care of Animals at the University of Michigan.
(§2) Short Bowel Syndrome Model: A 70% mid-small bowel resection was performed (i.e. bowel between 3.5 cm distal to the ligament of Treitz and 3.5 cm proximal to the ileocecal valve), followed by an end-to-end jejuno-ileal anastomosis with 7-0 monofilament, absorbable suture. Postoperatively a subcutaneous bolus of 3 ml 0.9% saline solution was given to maintain hydration status.
(§3) Sham operation: Mid-small bowel was transsected and re-anastomosed without bowel-resection.
Annexin V staining: Apoptosis was determined by flow cytometry based on the cell surface expression of phosphatidylserine using Annexin V staining (BD PharMingen, San Diego, Calif.). Propidium iodide was utilized to simultaneously monitor cell necrosis. Flow cytometry was performed by using standard techniques. Separation of EC from IEL was done by forward- and side-scatter gating characteristics. Further confirmation of EC and IEL purity was performed with specific staining of EC with antibody generated by a hybridoma G8.8 and a pan-lymphoid antibody (anti-CD45, PharMingen, San Diego, Calif.): Purity exceeded >98%.
Mucosal cell isolation: Isolation of mucosal cells was performed using standard protocols. […]
(§4) To further understand the relevance of ACE expression on EC apoptosis, ACE-inhibition was used. […] After 1 week, mice were killed, EC apoptotic rates assessed, and IEL mRNA and protein isolated.

[2] = test system: epithelial cell (EC) apoptosis; test: Epithelial cell apoptosis by TUNEL staining in SBS and Sham mice given ACE-I; format: in vivo, mouse; settings: for EC Apoptosis (TUNEL analysis): 0.6 mg/kg/day i.p. 7 days
Method: as §1, §2, §3
TUNEL staining: Paraffin-embedded tissue was assayed with TUNEL (Terminal deoxynucleotidyl transferase Biotin-dUTP Nick End Labeling) staining, according to slight modification of manufacturer's instructions (ApopTag InSitu Apoptosis Detection Kit, Serological Corporation, Norcross, Ga.): slides were incubated with only ⅓ of the recommended concentration of TdT enzyme, in order to avoid over-staining. Apoptosis rate (percent of EC showing apoptosis) was assessed with TUNEL staining and by morphological criteria (nuclear margination, chromatin and cytoplasmic condensation, shrinkage from neighboring cells, and formation of apoptotic bodies with nuclear and cytoplasmic fragmentation). Each assessment of apoptosis consists of the mean of 8 different crypt-villus-complexes.
(§5) To further understand the relevance of ACE expression on EC apoptosis, ACE-inhibition was used. ACE-I (enalaprilat, 0.6 mg/kg/day i.p.) was given to both SBS (SBS+ACE-I), and sham operated (Sham+ACE-I) mice over a 7 day period, starting on the day after surgery. This latter group was studied as an additional control to assess the effects of ACE-I in the absence of a SBS. After 1 week, mice were killed, EC apoptotic rates assessed, and IEL mRNA and protein isolated.

[3] = test system: SBS mice; test: Histology (villus height, crypt depth) of mid-small bowel in SBS and Sham mice given ACE-I; format: in vivo, mouse; settings: for Crypt depth / Villus height: 0.6 mg/kg/day i.p., 1 week postoperatively, 0.6 mg/kg/day
Method: as §1, §2, §3
Histology: A 0.5 cm segment of mid-small bowel was fixed in 10% formaldehyde, and processed for hematoxylin and eosin staining. Villus height and crypt depth were measured using a calibrated micrometer. Each measurement consisted of a mean of 16 different low power fields.
as §5

[4] = test system: IEL ACE mRNA; test: IEL ACE mRNA by real time PCR in SBS and Sham mice given ACE-I; format: in vivo, mouse; settings: enalaprilat 0.6 mg/kg/day i.p. 7 days, ratio ACE-cDNA copies over β-actin-cDNA copies
Method: as §2, §3
IEL purification: Isolation of purified IEL from EC was performed by direct magnetic separation. Magnetic beads conjugated with antibody to CD45 (pan-lymphoid marker) were used to segregate IEL from EC (BioMag SelectaPure Anti-Mouse CD 45R Antibody Particles, Polyscience Inc., Warrington, Pa.). Magnetic separation was performed twice to further deplete EC. […]
Real time PCR: Real-time PCR was run to better quantify actual changes in ACE expression. cDNA was also used for real time PCR. The same primers for ACE and β-actin were used as for conventional PCR, SYBR Green I was utilized for fluorescence. […] Ct- values of ACE and β-actin were converted to numbers of cDNA copies, and results expressed as the ratio of ACE over β-actin expression.
as §4

[5] = test system: IEL ACE protein; test: IEL ACE protein by immunoblot in SBS and Sham mice given ACE-I; format: in vivo, mouse; settings: 0.6 mg/kg/day i.p. 7 days, ratio of ACE over β-actin protein
Method: as §2, §3
IEL purification: Isolation of purified IEL from EC was performed by direct magnetic separation. Magnetic beads conjugated with antibody to CD45 (pan-lymphoid marker) were used to segregate IEL from EC (BioMag SelectaPure Anti-Mouse CD 45R Antibody Particles, Polyscience Inc., Warrington, Pa.). […]
Immunoblot analysis: Protein was extracted from isolated IEL and immunoblots performed by using a Bio-Rad protein assay kit (Bio-Rad Laboratories, Hercules, Calif.), with standard methods. […] Expression for β-actin was determined in the same fashion by re-probing membranes with purified anti-mouse β-actin (1:12000, Sigma-Aldrich, St. Louis, Mo.). Results are expressed as the ratio of ACE over β-actin protein expression.
as §4

[6] = test system: IEL TNF-α mRNA; test: IEL TNF-α mRNA by RT-PCR in SBS and Sham mice given ACE-I; format: in vivo, mouse; settings: for IEL TNF-α mRNA: 0.6 mg/kg/day i.p. 7 days, ratio over β-actin mRNA
Method: as §2, §3
IEL purification: Isolation of purified IEL from EC was performed by direct magnetic separation. Magnetic beads conjugated with antibody to CD45 (pan-lymphoid marker) were used to segregate IEL from EC (BioMag SelectaPure Anti-Mouse CD 45R Antibody Particles, Polyscience Inc., Warrington, Pa.). Magnetic separation was performed twice to further deplete EC. Final IEL purity was greater than 99% by flow cytometry.
Isolation of total RNA: A guanidine isothiocyanate/chloroform extraction method was performed using Trizol (Gibco BRL, Gaithersburg, Md.) according to manufacturer's directions.
Reverse transcriptase polymerase chain reaction (RT-PCR): mRNA (poly-A positive) was reversed transcribed into cDNA following a standard protocol. Specific primers for selected gene sequences were designed. PCR and gel were run under standard conditions. To ensure that DNA product was generated at the exponential portion of the product curve, the following cycle numbers were used: 28 cycles for ACE; 32 cycles for Rap2 interacting protein and TNF-α; and 34 cycles for lipocalin 2, amphiregulin, leucine-rich-α2-glycoprotein, and angiotensin II receptors. Gel bands were analyzed by DNA sequencing to ensure the correct product. Kodak EDAS System (Rochester, N.Y.) was used for imaging and quantification. Results were expressed as the ratio of the investigated mRNA over the β-actin mRNA expression.
as §4

[7] = test system: DSS-induced colitis; test: DSS-induced colitis mouse model; format: in vivo
Method: Male C57BL/6 specific-pathogen-free 2-month-old mice were kept in a 12-hour day/night environment maintained at 23° C. and a relative humidity of 40-60%. All mice drank 2.5% (w/v) DSS in water for 7 days followed by one day of plain water, while being fed normal mouse chow. Mice either received daily enalaprilat injection (0.015 mg/day, injection volume 0.5 ml, intraperitoneal) (n=6, “ACE-I”) or daily normal saline injection 0.5 ml (n=6, “Saline”). Body weight and hemoccult stool reaction were recorded. After the eight days of treatment, mice were euthanized with CO2, and colonic samples were immediately taken for histology and mucosal RNA extraction. Distal 1-cm colonic segments were excised, opened longitudinally, and fixed in 10% neutral buffered formalin. The remainder of the colon, including the cecum, was washed, cut into pieces, and mixed gently at 37° C. in EDTA/dithiothreitol buffer. The resulting mixture of epithelial cells and intraepithelial lymphocytes was then filtered through nylon wool and pelleted by centrifugation. Total RNA of the cell pellet was obtained using TRIZOL reagent and chloroform-isopropanol-ethanol extraction. Reverse transcription of RNA was done in the presence of RNAse inhibitor. RT product was then amplified with forward and reverse primers specific for ACE, TNF-α, and beta-actin, using real-time semiquantitative PCR. PCR results were analyzed by expressing ACE and TNF-α levels as a ratio to beta-actin levels, and were compared using a 2-tailed students' T test. Histologic grading of colitis was done by blinded observers using a standard scale for colitis severity. Histologic scores, as well as body weights and hemoccult results, were compared between groups using a 2-tailed homoscedastic T test.

[8] = ACE-I administration to SBS mice

Compound: C[C@H](N[C@@H](CCc1ccccc1)C(=O)O)C(=O)N1CCC[C@H]1C(=O)O [ACE-I, enalaprilat]
- EC necrosis (propidium iodide) ([1]; SBS + ACE-I mice): 5.2±2.6%
- EC necrosis (propidium iodide) ([1]; Sham + ACE-I mice): 5.2±2.6%
- EC apoptosis (Annexin V staining) ([1]; Sham + ACE-I mice, flow cytometry): 16.9±8.8%
- Decline of apoptotic rate (TUNEL) compared to untreated SBS mice ([2]; SBS + ACE-I group): 58%
- EC Apoptosis (TUNEL analysis) ([2]; SBS + ACE-I mice): 1.8 ± 0.5%
- Decrease of EC apoptosis (TUNEL) compared to untreated Sham mice ([2]; Sham + ACE-I group): 48%
- EC Apoptosis (TUNEL analysis) ([2]; Sham + ACE-I mice): 1.9 ± 0.4 %
- Location of apoptotic cells (TUNEL) ([2]; after ACE-I administration, untreated SBS and Sham: crypts and lower villi): confined to the crypts
- Change in crypt depth compared to SBS mice [3, 8]: significant (P=0.02), additional increase in crypt depth
- Change in villus height compared to SBS mice [3, 8]: unchanged
- Crypt depth ([3]; SBS + ACE-I mice): 145±22 μm and 145 ± 22° μm
- Villus height ([3]; SBS + ACE-I mice): 552±56 μm
- Alterations in histological features ([3]; Sham + ACE-I mice): no significant alterations
- Crypt depth ([3]; Sham + ACE-I mice): 87±6 μm
- Villus height ([3]; Sham + ACE-I mice): 340±20 μm
- IEL ACE mRNA ([4]; SBS + ACE-I mice): 0.63 ± 0.25
- IEL ACE mRNA ([4]; Sham + ACE-I mice): 0.66 ± 0.22
- IEL ACE protein ([5]; SBS + ACE-I mice): 0.14 ± 0.03
- IEL ACE protein ([5]; Sham + ACE-I mice): 0.13 ± 0.01
- IEL TNF-α mRNA ([6]; SBS + ACE-I mice): 0.5 ± 0.07
- IEL TNF-α mRNA ([6]; Sham + ACE-I mice): 0.37 ± 0.07
- Expression of TNF-α (FIG. 4) ([6]; mice with massive small bowel resection administered ACE-I): decreased expression of TNF-α
- ACE levels (mRNA) ([7]; DSS + ACE-I, colonic mucosal ACE as a ratio to beta-actin levels): 0.08 ± 0.13
- Hemocult onset ([7]; DSS + ACE-I, enalaprilat 0.015 mg/day i.p. daily): 4.8 ± 0.8 days
- Body Weight Loss ([7]; DSS + ACE-I, enalaprilat 0.015 mg/day i.p. daily, 2.5% DSS 7 days): 16.6 ±+2.7%
- Histologic Grade (histologic colitis score) ([7]; DSS + ACE-I, enalaprilat 0.015 mg/day i.p. daily, after eight days): 11.8 ± 1.5
- Colon histology (FIG. 5) ([7]; DSS colitis, daily enalaprilat injection, saline controls: essentially complete loss of crypts): significant areas retaining colonic crypts as well as surface epithelial cells
- Time course of development of heme-positive stools ([7]; compared to mice treated only with saline injection (FIG. 6)): significantly delayed
